Assay results from US8178548B2, “Anti-infective agents and uses thereof” (priority 2007, dated 2012).

Assays:
[1] = target: T1, HCV polymerase 1A (Δ21 NS5B, H77) (Hepatitis C virus genotype 1a, UniProt P27958); assay: biochemical
T1 construct: 20 to 50 nM Δ21 NS5B
In short: (§1)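 Δ21 NS5B (20–50 nM) was preincubated with inhibitor, 60–125 μM GTP and 2 mM MnCl2 (pH 7.4) for 15 min at RT. RNA synthesis on 5 nM template with 20 μM CTP/ATP and 1 μM ³H-UTP ran 2–4 h at RT. Spermine-precipitated RNA was filter-counted, and IC50 was fit with a tight-binding equation.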

[2] = target: T2, HCV polymerase 1B (Δ21 NS5B, HCV Strain 1B BK) (Hepatitis C virus genotype 1b, UniProt P26663); assay: biochemical
T2 construct: 20 to 50 nM Δ21 NS5B
In short: as §1

[3] = system: genotype 1a-H77 subgenomic replicon cell line; assay: HCV Polymerase Replicon Assay, genotype 1a-H77 (luciferase reporter); assay type: cell-based; conditions: Hepatitis C virus, 72 h; replicon 1a-H77, luciferase, three days; read-out: EC50 1a
[4] = system: genotype 1b-Con1 subgenomic replicon cell line; assay: HCV Polymerase Replicon Assay, genotype 1b-Con1 (luciferase reporter); assay type: cell-based; conditions: Hepatitis C virus, 72 h; replicon 1b-Con1, luciferase, three days; read-out: EC50 1b

T1 sequence (P27958 2421-2990, stated change not applied): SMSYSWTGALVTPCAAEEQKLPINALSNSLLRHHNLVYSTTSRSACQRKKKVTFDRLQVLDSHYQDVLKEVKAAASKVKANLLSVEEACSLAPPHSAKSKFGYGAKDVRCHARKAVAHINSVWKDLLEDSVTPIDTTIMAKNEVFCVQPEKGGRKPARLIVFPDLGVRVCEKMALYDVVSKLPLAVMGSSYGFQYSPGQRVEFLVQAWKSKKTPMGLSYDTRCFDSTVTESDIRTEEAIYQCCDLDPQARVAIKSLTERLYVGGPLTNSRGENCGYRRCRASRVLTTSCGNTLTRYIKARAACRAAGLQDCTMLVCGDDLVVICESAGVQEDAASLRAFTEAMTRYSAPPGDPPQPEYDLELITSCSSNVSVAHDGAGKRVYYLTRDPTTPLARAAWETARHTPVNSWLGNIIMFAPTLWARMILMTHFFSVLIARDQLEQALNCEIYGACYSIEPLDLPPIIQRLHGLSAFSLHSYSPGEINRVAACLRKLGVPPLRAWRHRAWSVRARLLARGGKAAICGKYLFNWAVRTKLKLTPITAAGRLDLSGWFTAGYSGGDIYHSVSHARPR
T2 sequence (P26663 2420-2989, stated change not applied): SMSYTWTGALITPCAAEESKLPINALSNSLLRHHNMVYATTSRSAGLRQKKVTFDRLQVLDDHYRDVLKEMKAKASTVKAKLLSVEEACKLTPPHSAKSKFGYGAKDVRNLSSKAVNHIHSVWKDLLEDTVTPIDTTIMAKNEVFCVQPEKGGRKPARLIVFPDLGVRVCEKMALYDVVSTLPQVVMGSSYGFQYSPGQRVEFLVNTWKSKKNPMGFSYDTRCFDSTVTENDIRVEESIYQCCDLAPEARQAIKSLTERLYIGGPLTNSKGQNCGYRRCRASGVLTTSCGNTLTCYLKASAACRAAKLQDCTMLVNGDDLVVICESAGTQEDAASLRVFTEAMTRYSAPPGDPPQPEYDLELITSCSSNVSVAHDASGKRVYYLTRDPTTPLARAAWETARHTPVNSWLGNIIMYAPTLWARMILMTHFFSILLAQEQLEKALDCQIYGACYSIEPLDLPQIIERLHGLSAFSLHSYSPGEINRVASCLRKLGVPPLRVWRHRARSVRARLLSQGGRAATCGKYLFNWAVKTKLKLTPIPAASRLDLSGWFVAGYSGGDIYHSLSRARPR

Structure (SMILES)	IC50 [1]	IC50 [2]	EC50 [3]	EC50 [4]
COc1c(/C=C/c2ccc(NS(C)(=O)=O)cc2)cc(-n2ccc(=O)[nH]c2=O)cc1-c1ccsc1 [IB-L1-1.47, (E)-N-(4-(5-(2,4-dioxo-3,4-dihydropyrimidin-1(2H)-yl)-2-methoxy-3-(thiophen-3-yl)styryl)phenyl)methanesulfonamide]	10 to 100 nM	10 to 100 nM	100 to 1000 nM	10 to 100 nM
COc1c(/C=C/c2ccc(NS(C)(=O)=O)cc2)cc(-n2ccc(=O)[nH]c2=O)cc1-c1cccs1 [IB-L1-1.48, (E)-N-(4-(5-(2,4-dioxo-3,4-dihydropyrimidin-1(2H)-yl)-2-methoxy-3-(thiophen-2-yl)styryl)phenyl)methanesulfonamide]	10 to 100 nM	10 to 100 nM	100 to 1000 nM	< 10 nM
COc1c(/C=C/c2ccc(NS(C)(=O)=O)cc2)cc(-n2ccc(=O)[nH]c2=O)cc1S(C)(=O)=O [IB-L1-1.49, (E)-N-(4-(5-(2,4-dioxo-3,4-dihydropyrimidin-1(2H)-yl)-2-methoxy-3-(methylsulfonyl)styryl)phenyl)methanesulfonamide]	10 to 100 nM	100 to 1000 nM	> 1000 nM	> 1000 nM
COc1c(/C=C/c2ccc(NS(C)(=O)=O)cc2)cc(-n2ccc(=O)[nH]c2=O)cc1-c1ccoc1 [IB-L1-1.50, (E)-N-(4-(5-(2,4-dioxo-3,4-dihydropyrimidin-1(2H)-yl)-3-(furan-3-yl)-2-methoxystyryl)phenyl)methanesulfonamide]	10 to 100 nM	10 to 100 nM	100 to 1000 nM	10 to 100 nM
COc1c(I)cc(-n2ccc(=O)[nH]c2=O)cc1/C=C/c1ccc(NS(C)(=O)=O)cc1 [IB-L1-1.51, (E)-N-(4-(5-(2,4-dioxo-3,4-dihydropyrimidin-1(2H)-yl)-3-iodo-2-methoxystyryl)phenyl)methanesulfonamide]	10 to 100 nM	10 to 100 nM	> 1000 nM	10 to 100 nM
COc1c(Br)cc(-n2ccc(=O)[nH]c2=O)cc1/C=C/c1ccc(NS(C)(=O)=O)cc1 [IB-L1-1.52, (E)-N-(4-(3-bromo-5-(2,4-dioxo-3,4-dihydropyrimidin-1(2H)-yl)-2-methoxystyryl)phenyl)methanesulfonamide]	100 to 1000 nM	100 to 1000 nM	> 1000 nM	100 to 1000 nM
COC(=O)c1cc(NS(C)(=O)=O)ccc1CCc1cc(-n2ccc(=O)[nH]c2=O)cc(C(C)(C)C)c1OC [IB-L5-2-1.1, methyl 2-(3-tert-butyl-5-(2,4-dioxo-3,4-dihydropyrimidin-1(2H)-yl)-2-methoxyphenethyl)-5-(methylsulfonamido)benzoate]	< 10 nM	10 to 100 nM	10 to 100 nM	< 10 nM
COc1c(CCc2ccc(NS(C)(=O)=O)cc2)cc(-n2ccc(=O)[nH]c2=O)cc1C(C)(C)C [IB-L5-2-1.2, N-(4-(3-tert-butyl-5-(2,4-dioxo-3,4-dihydropyrimidin-1(2H)-yl)-2-methoxyphenethyl)phenyl)methanesulfonamide]	10 to 100 nM	10 to 100 nM	100 to 1000 nM	10 to 100 nM
